Source: publication PMC9264368, “Structural Analysis and Development of Notum Fragment Screening Hits” (ACS Chemical Neuroscience, 2022)
Where two headings read alike, the source gives them in different places.

Assays:
Notum [1] = target: T1, Notum (Homo sapiens, UniProt Q6P988, C330S); settings: for LE (ligand efficiency): LE = 1.4(−pIC50)/HAC; for LLE (lipophilic ligand efficiency): LLE = pIC50 – clogP; for LE / LLE: supplementary CSV; for fold improvement in Notum inhibition: versus parent: 7 vs 26, 16a vs 16, 15a vs 15, 7c vs 7b; for IC50: read-out: Notum IC50, Table S1, mean ± s.d. of N = 2-4 unless stated
T1 sequence (Q6P988 81-451 C330S): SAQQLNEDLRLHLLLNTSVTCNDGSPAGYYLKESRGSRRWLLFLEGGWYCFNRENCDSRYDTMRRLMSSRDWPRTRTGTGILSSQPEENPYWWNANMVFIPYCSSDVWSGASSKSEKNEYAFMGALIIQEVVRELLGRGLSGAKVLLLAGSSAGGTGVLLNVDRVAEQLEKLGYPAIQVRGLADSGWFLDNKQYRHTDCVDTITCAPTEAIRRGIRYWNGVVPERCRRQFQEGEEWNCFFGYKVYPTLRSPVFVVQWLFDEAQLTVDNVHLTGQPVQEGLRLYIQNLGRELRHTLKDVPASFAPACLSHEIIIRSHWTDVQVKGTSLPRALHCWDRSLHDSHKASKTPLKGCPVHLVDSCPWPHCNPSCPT

Notum [2] = target: T1, Notum; assay: biochemical
[3] = Notum IC50, OPTS substrate, 10-point curves 30 nM to 1 mM, mean ± s.d. of N = 2–4 unless stated, Table 1 and figures
[4] = pIC50, Table 1, Notum OPTS assay
[5] = IC50 (µM), supplementary CSV, Notum IC50 values for 1–58

Row | Structure (SMILES) | LE (ligand efficiency) (Notum [1]) | LLE (lipophilic ligand efficiency) (Notum [1]) | LE (Notum [1]) | LLE (Notum [1]) | IC50 (Notum [2]; [3]) [µM] | other results
1 | COC(=O)c1ccccc1Oc1ccc(N)cc1 [compound 6, Methyl 2-(4-aminophenoxy)benzoate] | 0.28 | 0.9 | 0.28 | 0.9 | 260 ± 120 | –
2 | CCc1noc(C)c1C(=O)Nc1cc(C)on1 [compound 53] | 0.25 | 2.7 | 0.25 | 2.7 | 980 ± 17 | –
3 | Cc1cccc2[nH]c(NC#N)nc12 [15a, N-(4-Methyl-1H-benzo[d]imidazol-2-yl)cyanamide] | – | – | – | – | 0.94 ± 0.06 | fold improvement in Notum inhibition (Notum [1]): 18 fold
4 | Oc1c(F)cc(F)cc1-c1cc[nH]n1 [compound 16] | 0.55 | 3.6 | 0.55 | 3.6 | 3.3 ± 0.4 | IC50 (Notum [2]; [4]): 3.16 µM
5 | Cc1cccc2nc(NC#N)n(C)c12 [15l] | – | – | – | – | – | IC50 (Notum [1]): 2.2 ± 0.48 µM
6 | Cc1ccccc1CNc1nnnn1C [compound 54] | 0.38 | 2.0 | 0.38 | 2 | 78 ± 8.2 | –
7 | COC(=O)COc1ccc(C#N)cc1 [compound 44] | 0.34 | 2.0 | 0.34 | 2 | 410 ± 63 | –
8 | OCc1cn(-c2ccc(Cl)c(C(F)(F)F)c2Cl)nn1 [7c] | – | – | – | – | – | fold improvement in Notum inhibition (Notum [1]): 7 fold
9 | O=C(O)COCc1ccccc1 [compound 52] | – | – | – | – | > 1000 | IC50 (Notum [2]; IC50 (µM)): > 1000 µM
10 | CC1CCN(Cc2c[nH]c3ccccc23)CC1 [compound 38] | 0.32 | 0.2 | 0.32 | 0.2 | 120 ± 49 | –
11 | OCc1ccc(-n2cnc3ccccc32)cc1 [compound 4, [4-(1H-1,3-Benzimidazol-1-yl-)phenyl]methanol] | 0.35 | 1.7 | 0.35 | 1.7 | 54 ± 16 | –
12 | Cn1nc(O)cc1Nc1ccccc1 [compound 49] | 0.33 | 1.8 | 0.33 | 1.8 | 550 ± 93 | IC50 (Notum [2]; [4]): 631 µM
13 | O=C(NCCc1ccc(O)cc1)c1ccccn1 [compound 45] | 0.24 | 1.2 | 0.24 | 1.2 | 720 ± 18 | –
14 | Nc1ccccc1OCc1ccccc1 [compound 13, 2-(Benzyloxy)aniline] | 0.33 | 0.6 | 0.33 | 0.6 | 280 ± 110 | –
15 | Cc1ccc2[nH]c(NC#N)nc2c1C [15m] | – | – | – | – | – | IC50 (Notum [1]): 18 ± 5.1 µM
16 | CC(=O)Nc1ccc2nsnc2c1 [compound 58] | 0.38 | 1.4 | 0.38 | 1.4 | 390 ± 53 | –
17 | CC(=O)Nc1ccc(Nc2ccccc2)cc1 [compound 25, N-(4-Anilinophenyl)acetamide] | 0.36 | 1.6 | 0.36 | 1.6 | 86 ± 21 | –
18 | COc1cccc2[nH]c(NC#N)nc12 [15f] | – | – | – | – | – | IC50 (Notum [1]): 14 ± 1.3 µM
19 | c1cc2c(cc1CNC[C@H]1CCCO1)OCO2 [compound 32] | 0.25 | 0.9 | 0.25 | 0.9 | ~1000 | IC50 (Notum [2]; [5]): 1000 µM
20 | O=C(NO)OCc1ccccc1 [compound 29, Benzyl N-hydroxycarbamate] | – | – | – | – | – | response in fluorescence in Notum OPTS assay (Notum [1]; at higher concentrations (>100 μM), likely assay interference): variable, supramaxial responses in fluoresence
21 | N#CNc1nc2cc(C(F)(F)F)ccc2[nH]1 [15j] | – | – | – | – | – | IC50 (Notum [1]): 36 ± 5.7 µM
22 | N#CNc1nc2c(C(F)(F)F)cccc2[nH]1 [15e] | – | – | – | – | – | IC50 (Notum [1]): 12 ± 1.4 µM
23 | CCNC(=O)Nc1cc(C)on1 [compound 1] | – | – | – | – | > 1000 | IC50 (Notum [2]; [5]): > 1000 µM
24 | O=C(NCCc1ccncc1)NC1CCCCC1 [compound 9] | – | – | – | – | > 1000 | IC50 (Notum [2]; [5]): > 1000 µM
25 | CCOc1ccc(CC(=O)O)cc1 [compound 48] | – | – | – | – | > 1000 | IC50 (Notum [2]; [5]): > 1000 µM
26 | Cc1cccc2c1nc(NC#N)n2C [15k] | – | – | – | – | – | IC50 (Notum [1]): 9.3 ± 3.8 µM
27 | O=C(O)COc1ccc(N2C(=O)CCC2=O)cc1 [compound 39] | – | – | – | – | > 1000 | IC50 (Notum [2]; [5]): > 1000 µM
28 | CC(=O)Nc1ccc(OCC(=O)O)cc1 [compound 27, (4-Acetamidophenoxy)acetic acid] | – | – | – | – | > 1000 | IC50 (Notum [2]; [5]): > 1000 µM
